Source: US20100255580A1, “Differentiation of Human Embryonic Stem Cells” (LIFESCCAN, INC., priority 2007, published 2010)

Columns and labels:
[1] = tested on: human embryonic stem cell line H9; assay: Real-time PCR of marker gene expression, H9 on MEF (Examples 2-7); format: cell-based
Procedure: Cells were harvested at the time points indicated in FIG. 3 and assayed by PCR for the expression of genes shown (FIGS. 3, 4 and 5).
After this time interval, the cells were then treated for six days with combinations of retinoic acid and FGF as outlined in Example 2, then the culture medium was removed and replaced with medium comprising DMEM/F12 with 2% FBS, containing the γ-secretase inhibitors L-685,458 at 10 μM for three days.
Cells were continuously cultured for another 3 to 5 days in basal medium with retinoic acid at 1 μM, alone or with bFGF. RNA samples were harvested from cells at various time points along this process to help evaluate the directed differentiation of the cells. Furthermore, culture medium and factors were regularly removed and replenished throughout the differentiation protocol.
RNA extraction, purification, and cDNA synthesis. RNA samples were purified by binding to a silica-gel membrane (Rneasy Mini Kit, Qiagen, CA) in the presence of an ethanol-containing, high-salt buffer followed by washing to remove contaminants. The RNA was further purified using a TURBO DNA-free kit (Ambion, INC), and high-quality RNA was then eluted in water. Yield and purity were assessed by A260 and A280 readings on a spectrophotometer. cDNA copies were made from purified RNA using an ABI (ABI, CA) high capacity cDNA archive kit.
(§1) Real-time PCR amplification and quantitative analysis.
(§2) Final data were expressed relative to a calibrator sample.

H9P44 cells = assay: RT-PCR of definitive endoderm markers, growth factor combinations in low serum on MEFs (Example 22); format: cell-based, human; details: H9P44 on MEF; Day 3; normalized to Group 1 (control)
Procedure: as §1, §2
H9P44 cells were plated onto 6 well plates previously coated with mitomycin treated mouse embryonic fibroblasts (MEF). Cells were grown until 70 to 80% confluency in ES cell medium consisting of DMEM/F12 (Invitrogen/GIBCO) supplemented with 20% knockout serum replacement, 100 nM MEM nonessential amino acids, 0.5 mM beta-mercaptoethanol, 2 mM L-glutamine (all from Invitrogen/GIBCO) and 8 ng/ml human basic fibroblast growth factor (bFGF) (R&D Systems).
Growth factors were added to increasing concentration of FBS in a stepwise manner as indicated in the following regimen: • Day 0: 0% FBS in DMEM/F12 • Day 1: 0.5% FBS in DMEM/F12 • Day 2: 2% FBS in DMEM/F12. • Day 3: Cells were harvested for FACS analysis and RT-PCR.
All growth factors were purchased from R&D Systems, MN. A detailed description and concentration of growth factors for each treatment group is shown below.
For RT-PCR analysis, cells were analyzed for expression of selected panel of definitive endoderm markers.

[2] = tested on: human embryonic stem cells (H9, H7) on MATRIGEL; assay: Real-time PCR of definitive endoderm markers, DE protocol on […] or fibronectin (feeder-free); format: cell-based; details: for definitive endoderm markers (real-time PCR): H7 and H9, low serum+AA+/−Wnt ligands, 5 days
Procedure: as §1, §2
Differentiation of embryonic stem cells to definitive endoderm was carried out as previously described in Nature Biotechnology 23, 1534-1541 (December 2005). […] In all subsequent examples unless otherwise noted, this treatment regimen will be referred to as the definite endoderm (DE) protocol. In parallel, H9, H7, or H1 cells cultured on MEF feeders were also exposed to the same DE protocol outlined above.
At day 5, the cultures were analyzed by FACS for CXCR4, E-cadherin, CD9, CD99, and N-cadherin (CD56) expression and by real time PCR for SOX-17, SOX-7, Alpha-fetal protein (AFP), CXCR4, Brychyury (Bry), gooscecoid (GSC), HNF-3 beta, and GATA4. AFP and SOX-7 are regarded as visceral endoderm markers while GATA4, HNF-3beta and SOX-17 represent definite endoderm markers and GSC, Bry, and CXCR4 represent markers of primitive streak.
In some of the cultures 20 ng/ml Wnt-3a (Catalog #1324-WN-002, R&D Systems, MN), 20 ng/ml Wnt-5a (Catalog #654-WN-010, R&D Systems, MN), 25 ng/ml Wnt-7a (Catalog #3008-WN-025, R&D Systems, MN), or 25 ng/ml Wnt-5b (Catalog #3006-WN-025, R&D Systems, MN) was added throughout the five day treatment. FIG. 24 depicts phase contrast images of H9P46 definitive endoderm culture in the presence of high concentration of (a) AA or (b) AA+20 ng/ml Wnt-3a. FIG. 25 depicts the expression of CXCR4 by FACS at day 5 for H7P44, and H9P46 lines cultured on […] (1:30 dilution) and exposed to the DE protocol+Wnt-3a (FIG. 25, panels b and d) and −Wnt-3a (FIG. 25, panels a and c).
Control cultures were not treated with Wnt-3a. FIG. 27, panel a depicts the expression of CXCR4 by FACS at day 5 in the absence of Wnt-3a, b) 10 ng/ml Wnt-3a, c) 20 ng/ml Wnt-3a and d) 50 ng/ml Wnt-3a. In the absence of Wnt-3a the expression of CXCR4 was very low. […] Real-time PCR results (FIG. 28, panel a) also confirm this finding.
In a separate study, H9 p52 cells were plated on 1:30 low growth factor […]™. For the first 2 days of the DE protocol a range of Wnt3A doses was used: 10 ng/ml, 5 ng/ml and 1 ng/ml. […] The number of cells at the end of the experiment is noted in FIG. 28, panel c.
In order to confirm that the effect of Wnt-3a was through the Wnt pathway, a GSK-3 inhibitor was used to activate the downstream targets of Wnt, such as beta catenin. […] FIG. 29, panel a depicts the expression of CXCR4 by FACS at day 5 in the absence of Wnt-3a or GSK-3B inhibitor, b) +20 ng/ml Wnt-3a, c) +1000 nM GSK-3B inhibitor IX, d) +500 nM GSK-3B inhibitor IX, e) +100 nM GSK-3B inhibitor IX, f) +10 nM GSK-3B inhibitor IX, g) +100 nM GSK-3B inhibitor IX for days 1-2, and h) +10 nM GSK-3B inhibitor IX for days 1-2.
FIG. 31 panels a-d is for H9P49 cells and panels e-f is for H1P46 cells.
Results are expressed as fold increase over untreated cells. […] Results are expressed as fold increase over untreated cells.
H9P55 cells were grown and differentiated on human fibronectin or regular growth factor […]™ (BD Biosciences). lml of DMEM/F12 (Invitrogen/GIBCO) containing 1 ug/ml of human fibronectin (R&D systems, MN) was added to each well of 6 well tissue culture treated dish. Alternatively, regular growth factor […]™ was diluted 1:10 in DMEM/F12 and 1 ml of diluted […]™ was added to each well of 6 well tissue culture treated dish. Cells were passed with collagenase. […] Real-time PCR results (FIG. 39) confirm that formation of definitive endoderm was equivalent on fibronectin and […]™ coated plates.
To determine if the addition of Wnt-3a was causing the increase in differentiation, an inhibitor of Wnt-3 signaling was added to the cultures. […] H9 cells were cultured on plates coated with Growth Factor Reduced […] at a 1:30 dilution. The plates were coated with […] for 1 hr at room temperature. […]

CC(C)C[C@H](NC(=O)[C@H](Cc1ccccc1)C[C@@H](O)[C@H](Cc1ccccc1)NC(=O)OC(C)(C)C)C(=O)N[C@@H](Cc1ccccc1)C(N)=O [L-685,458, reference compound]
NeuroD1 expression ([1]; L-685,458 10 μM for three days): increased further
expression of Ngn3 versus activin A alone or retinoic acid with FGFs ([1]; L-685,458 10 μM for three days): approximately 50 fold
increase of insulin expression ([1]; L-685,458 10 μM for three days): 70 fold
expression of Hes-1 ([1]; L-685,458 10 μM, maximal inhibition on day three): decrease

Group 9: IL-4 (10 ng/ml)
CXCR4 relative expression (H9P44 cells): 1.4
Goosecoid relative expression (H9P44 cells): 0.9
HNF-3B relative expression (H9P44 cells): 0.89
Oct-4 relative expression (H9P44 cells): 0.85
SOX-2 relative expression (H9P44 cells): 1.2
Sox17 relative expression (H9P44 cells): 1

fibronectin
formation of definitive endoderm (real-time PCR) ([2]; H9P55, fibronectin vs MATRIGEL coated plates): equivalent

B1: Wnt-7a: Wnt ligand (Catalog #3008-WN-025, R&D Systems, MN) (protein, UniProt O00755 32-349, looked up)
Protein Wnt-7a: LGASIICNKIPGLAPRQRAICQSRPDAIIVIGEGSQMGLDECQFQFRNGRWNCSALGERTVFGKELKVGSREAAFTYAIIAAGVAHAITAACTQGNLSDCGCDKEKQGQYHRDEGWKWGGCSADIRYGIGFAKVFVDAREIKQNARTLMNLHNNEAGRKILEENMKLECKCHGVSGSCTTKTCWTTLPQFRELGYVLKDKYNEAVHVEPVRASRNKRPTFLKIKKPLSYRKPMDTDLVYIEKSPNYCEEDPVTGSVGTQGRACNKTAPQASGCDLMCCGRGYNTHQYARVWQCNCKFHWCCYVKCNTCSERTEMYTCK
definitive endoderm markers (real-time PCR) [2]: minimal impact

B2: BMP-4: BMP-4 (Catalog #314-BP-010, R&D Systems, MN) (protein, UniProt P12644 293-408, looked up)
Bone morphogenetic protein 4: SPKHHSQRARKKNKNCRRHSLYVDFSDVGWNDWIVAPPGYQAFYCHGDCPFPLADHLNSTNHAIVQTLVNSVNSSIPKACCVPTELSAISMLYLDEYDKVVLKNYQEMVVEGCGCR
mesoderm marker BRY ([2]; H9P53, BMP-4 25 ng/ml added to the DE protocol): induce formation

B3: Wnt-5a: Wnt ligand (Catalog #654-WN-010, R&D Systems, MN) (protein, UniProt P41221 62-380, looked up)
Protein Wnt-5a: IIGAQPLCSQLAGLSQGQKKLCHLYQDHMQYIGEGAKTGIKECQYQFRHRRWNCSTVDNTSVFGRVMQIGSRETAFTYAVSAAGVVNAMSRACREGELSTCGCSRAARPKDLPRDWLWGGCGDNIDYGYRFAKEFVDARERERIHAKGSYESARILMNLHNNEAGRRTVYNLADVACKCHGVSGSCSLKTCWLQLADFRKVGDALKEKYDSAAAMRLNSRGKLVQVNSRFNSPTTQDLVYIDPSPDYCVRNESTGSLGTQGRLCNKTSEGMDGCELMCCGRGYDQFKTVQTERCHCKFHWCCYVKCKKCTEIVDQFVCK
definitive endoderm markers (real-time PCR) [2]: minimal impact

B4: DKK1: Wnt Inhibitor; inhibitor of Wnt-3 signaling (protein, UniProt O94907 32-266, looked up)
Dickkopf-related protein 1: TLNSVLNSNAIKNLPPPLGGAAGHPGSAVSAAPGILYPGGNKYQTIDNYQPYPCAEDEECGTDEYCASPTRGGDAGVQICLACRKRRKRCMRHAMCCPGNYCKNGICVSSDQNHFRGEIEETITESFGNDHSTLDGYSRRTTLSSKMYHTKGQEGSVCLRSSDCASGLCCARHFWSKICKPVLKEGQVCTKHRRKGSHGLEIFQRCYCGEGLSCRIQKDHHQASNSSRLHTCQRH
expression level of differentiation markers (CXCR4, GATA4, HNF-3beta, SOX17, goosecoid) ([2]; H9, 100 ng/ml DKK1 with 20 ng/ml Wnt3a and 100 ng/ml activin A, day 5): dramatically decrease

B5: Wnt-5b: Wnt ligand (Catalog #3006-WN-025, R&D Systems, MN) (protein, UniProt Q9H1J7 18-359, looked up)
Protein Wnt-5b: QLLTDANSWWSLALNPVQRPEMFIIGAQPVCSQLPGLSPGQRKLCQLYQEHMAYIGEGAKTGIKECQHQFRQRRWNCSTADNASVFGRVMQIGSRETAFTHAVSAAGVVNAISRACREGELSTCGCSRTARPKDLPRDWLWGGCGDNVEYGYRFAKEFVDAREREKNFAKGSEEQGRVLMNLQNNEAGRRAVYKMADVACKCHGVSGSCSLKTCWLQLAEFRKVGDRLKEKYDSAAAMRVTRKGRLELVNSRFTQPTPEDLVYVDPSPDYCLRNESTGSLGTQGRLCNKTSEGMDGCELMCCGRGYNQFKSVQVERCHCKFHWCCFVRCKKCTEIVDQYICK
definitive endoderm markers (real-time PCR) [2]: minimal impact
